# In patent US9359196B2, “Antiproliferative compositions comprising curcumin analogs and methods of producing and using same” (The Board of Regents of the University of Oklahoma, priority 2009, dated 2016):
# Read-outs that look alike come from different tables or passages of the source.
# How the values were obtained:
# [1] = tested on: lung adenocarcinoma cell line H441; experiment: Cell proliferation (hexosaminidase assay) in lung adenocarcinoma H441 cells, Example 1; type: cell-based, human
# Method: Cell Proliferation Studies: In order to assess the anti-proliferative activity of the synthesized compounds, an in vitro cell culture system of lung adenocarcinoma cell line H441 was used. The cell detachment and anti-proliferative activity was measured as a decrease in hexosaminidase enzyme activity associated with remainder of the adhered cells. [Landegren, 1984] […] The concentration versus cell proliferation plots were analyzed by an exponential fit (Table 1). The results were compared with the anti-proliferative activity of compound 1.
# Cell Culture and drug treatment: Human lung adenocarcinoma cell line NCI-H441 (ATCC Number: HTB-174) was obtained from the American Type Culture Collection (Manassas, Va.). H441 cells were maintained at 37° C. with 5% CO2 in McCoy's 5A Medium (Invitrogen, Carlsbad, Calif.) supplemented with 5% heat-inactivated fetal bovine serum (FBS). All media contained gentamicin at 50 μg/ml (GIBCO Laboratories, Grand Island, N.Y.). Other cells lines (PANC-1, MiaPaCa-2 and PC-3) were also similarly maintained, except that the cell culture medium was RPMI 1640 instead of McCoy's.
# To evaluate the anti-proliferative activity of synthesized bis(2-fluorobenzylidene)-4-piperidone and its derivatives, the cells were seeded in 96-well flat-bottom tissue culture plates at a density of 10×10^3 cells per well. The cells were allowed to attach and grow overnight. The test compounds were solubilized in dimethyl sulfoxide (DMSO), filtered through 0.2 μm nylon filter and added to cells at 1, 10, 25 and 100 μM concentrations in culture medium supplemented with 5% FBS. The DMSO concentration was maintained at 0.1% per well. Control wells received equivalent volume of DMSO without any test compounds. The cells were allowed to remain in the treatment medium for 24, 48 and 72 hours.
# Cell Proliferation: The total number of cells after the treatment period was estimated by the hexosaminidase assay. [Landegren, 1984] Briefly, the medium was removed and hexosaminidase substrate solution in citrate buffer pH 5 (7.5 mM), […] (Calbiochem, San Diego, Calif.) was added at 60 μl per well. The plate was incubated at 37° C. in 100% humidity for 30 minutes, before stopping the reaction with 90 μl of 50 mM glycine containing 5 mM of EDTA (pH 10.4). The absorbance was measured at 405 nm. The experiments were conducted in triplicate, and repeated at least twice. The data were analyzed as percent of control, where the control wells were treated with equivalent amounts of DMSO alone, and the analyzed data was presented as average±standard error of mean. The differences among mean values were deemed significant at p<0.05.
# For IC50 calculations, a plot between the drug concentration and hexosaminidase activity was generated and the data was fitted either linearly or exponentially. The best fit was used for further processing of data.
# [2] = Homo sapiens, NCI-H441, 24 h of treatment, 1-100 μM tested, fitted plot, read-out: IC50 value
# [3] = Homo sapiens, NCI-H441, 24 h of treatment, read-out: IC50 (grouping relative to compound 1)
# [4] = 24 h of treatment, 1-100 μM tested, fitted plot, read-out: IC50 value
smiles,measurement,setting,value
"O=C1C(=Cc2ccccc2)CNCC1=Cc1ccccc1 [Compound 2, 3,5-Bis(benzylidene)-4-piperidone]",IC50,[1]; [2],12 µM
same,IC50,[1]; [3],< 30 µM
"O=C1C(=Cc2ccccc2Cl)CNCC1=Cc1ccccc1Cl [Compound 3, 3,5-Bis(2-chlorobenzylidene)-4-piperidone]","anti-proliferative activity in words, relative to the comparator named",[1],more anti-proliferative than the 2-fluoro substituted compound 1
same,IC50,[1]; [2],5 µM
same,IC50,[1]; [3],< 30 µM
"O=C1C(=Cc2ccccc2Br)CNCC1=Cc1ccccc1Br [Compound 4, 3,5-Bis(2-bromobenzylidene)-4-piperidone]",IC50,[1]; [2],6 µM
same,IC50,[1]; [3],< 30 µM
"O=C1C(=Cc2ccccc2[N+](=O)[O-])CNCC1=Cc1ccccc1[N+](=O)[O-] [Compound 5, 3,5-Bis(2-nitrobenzylidene)-4-piperidone]","anti-proliferative activity in words, relative to the comparator named",[1],the activity remained more or less the same
same,IC50,[1]; [2],93 µM
same,IC50,[1]; [3],> 50 µM
"O=C1C(=Cc2cccc(Cl)c2)CNCC1=Cc1cccc(Cl)c1 [Compound 6, 3,5-Bis(3-chlorobenzylidene)-4-piperidone]","anti-proliferative activity in words, relative to the comparator named",[1],little change in IC50 as compared to that of compound 1
same,IC50,[1]; [2],50 µM
"O=C1C(=Cc2ccc(F)cc2)CNCC1=Cc1ccc(F)cc1 [Compound 7, 3,5-Bis(4-fluorobenzylidene)-4-piperidone]",IC50,[1]; [2],45.7 µM
"O=C1C(=Cc2ccc(Cl)cc2)CNCC1=Cc1ccc(Cl)cc1 [Compound 8, 3,5-Bis(4-chlorobenzylidene)-4-piperidone]","anti-proliferative activity in words, relative to the comparator named",[1],no change in the anti-proliferative activity of 8 compared to that of 7
same,IC50,[1]; [2],87 µM
same,IC50,[1]; [3],> 50 µM
"CN(C)c1ccc(C=C2CNCC(=Cc3ccc(N(C)C)cc3)C2=O)cc1 [Compound 9, 3,5-Bis[4-(N,N-dimethylaminoenzylidene)]-4-piperidone]",IC50,[1]; [4],101 µM
"OC1C(=Cc2ccccc2F)CNCC1=Cc1ccccc1F (stereo not shown) [Compound 10, 3,5-Bis(2-fluorobenzylidene)-4-hydroxy-piperidine]","anti-proliferative activity in words, relative to the comparator named",[1],significantly less anti-proliferative activity as compared to compound 1
same,IC50,[1]; [2],124 µM
same,IC50,[1]; [3],> 50 µM
"O=C1C(Cc2ccccc2F)CNCC1Cc1ccccc1F (stereo not shown) [Compound 11, 3,5-Bis(2-fluorobenzyl)-4-piperidone]","anti-proliferative activity in words, relative to the comparator named",[1],significantly less anti-proliferative activity as compared to compound 1
same,IC50,[1]; [2],130 µM
same,IC50,[1]; [3],> 50 µM
O=C(O)CCC(=O)N1CC(=Cc2ccccc2F)C(=O)C(=Cc2ccccc2F)C1 [Compound 12],IC50,[1]; [4],69 µM
"O=C(O)C=CC(=O)N1CC(=Cc2ccccc2F)C(=O)C(=Cc2ccccc2F)C1 [Compound 13, 4-[3,5-Bis-(2-fluorobenzylidene)-4-oxo-piperidin-1-yl]-4-oxo-2-butenoic acid]","anti-proliferative activity in words, relative to the comparator named",[1],significant enhancement in potency
same,IC50,[1]; [2],29 µM
same,IC50,[1]; [3],< 30 µM
"O=C(O)COCC(=O)N1CC(=Cc2ccccc2F)C(=O)C(=Cc2ccccc2F)C1 [Compound 14, 2-[3,5-Bis-(2-fluorobenzylidene)-4-oxo-piperidin-1-yl]-2-oxo-ethoxyacetic acid]","anti-proliferative activity in words, relative to the comparator named",[1],less potent as compared to compound 15
same,IC50,[1]; [2],310 µM
same,IC50,[1]; [3],> 50 µM
"O=C(O)CCCC(=O)N1CC(=Cc2ccccc2F)C(=O)C(=Cc2ccccc2F)C1 [Compound 15, 5-[3,5-Bis-(2-fluorobenzylidene)-4-oxo-piperidin-1-yl]-5-oxo-pentanoic acid]",melting point,,167 to 168 °C
same,IC50,[1]; [2],60 µM
same,IC50,[1]; [3],> 50 µM
"O=C1C(=Cc2ccccc2F)CN(C(=O)c2ccccc2C(=O)O)CC1=Cc1ccccc1F [Compound 16, 2-[3,5-Bis-(2-fluorobenzylidene)-4-oxo-piperidine-1-carbonyl]-benzoic acid]","anti-proliferative activity in words, relative to the comparator named",[1],very potent analog
same,IC50,[1]; [2],56 µM
same,IC50,[1]; [3],> 50 µM
"O=C1C(=Cc2ccccc2F)CN(C(=O)C2CCCCC2C(=O)O)CC1=Cc1ccccc1F (stereo not shown) [Compound 17, 2-[3,5-Bis-(2-fluorobenzylidene)-4-oxo-piperidine-1-carbonyl]-cyclohexanecarboxylic acid]",melting point,,96 to 98 °C
same,IC50,[1]; [2],55 µM
same,IC50,[1]; [3],> 50 µM
"O=CN1CC(=Cc2ccccc2F)C(=O)C(=Cc2ccccc2F)C1 [Compound 18, N-Formyl-3,5-bis(2-fluorobenzylidene)-4-piperidone]","anti-proliferative activity in words, relative to the comparator named",[1],performed slightly better than compound 1
same,IC50,[1]; [2],49 µM
"CC(=O)N1CC(=Cc2ccccc2F)C(=O)C(=Cc2ccccc2F)C1 [Compound 19, N-Acetyl-3,5-bis(2-fluorobenzylidene)-4-piperidone]","anti-proliferative activity in words, relative to the comparator named",[1],performed slightly better than compound 1
same,IC50,[1]; [2],54 µM
same,IC50,[1]; [3],> 50 µM
"Cc1ccc(S(=O)(=O)N2CC(=Cc3ccccc3F)C(=O)C(=Cc3ccccc3F)C2)cc1 [Compound 20, N-(4-Methylbenzenesulfonyl)-3,5-bis(2-fluorobenzylidene)-4-piperidone]",melting point,,162 to 163 °C
same,IC50,[1]; [2],50 µM
same,IC50,[1]; [3],> 50 µM
"O=C(CCC(=O)N1CC(=Cc2ccccc2F)C(=O)C(=Cc2ccccc2F)C1)N[C@H]1C(O)O[C@H](CO)[C@@H](O)[C@@H]1O (stereo partly shown) [Compound 22, 4-Oxo-4-[3,5-bis(2-fluorobenzylidene-4-piperidonylcarbonyl)-2-glucosepropanamide]]","anti-proliferative activity in words, relative to the comparator named",[1],reduced anti-proliferative activity
same,IC50,[1]; [4],79 µM
"O=C(CN1CC(=Cc2ccccc2F)C(=O)C(=Cc2ccccc2F)C1)NCc1ccc(F)cc1 [Compound 23, 2-[3,5-Bis(2-fluorobenzylidene-4-piperidone-1-yl)-N-(4-fluorobenzyl)acetamide]]",IC50,[1]; [4],46 µM
"CCCCCCCCCCCCCCCCNC(=O)CCC(=O)N1CC(=Cc2ccccc2F)C(=O)C(=Cc2ccccc2F)C1 [Compound 24, 4-[3,5-Bis-(2-fluorobenzylidene)-4-oxo-piperidin-1-yl]-N-hexadecyl-4-oxo-butyramide]","anti-proliferative activity in words, relative to the comparator named",[1],loss of anti-proliferative activity
same,IC50,[1]; [2],64 µM
same,IC50,[1]; [3],> 50 µM
"CCCCCCCCCCC=CC(CC(=O)O)C(=O)N1CC(=Cc2ccccc2F)C(=O)C(=Cc2ccccc2F)C1 (stereo not shown) [Compound 26, 3-[3,5-Bis-(2-fluorobenzylidene)-4-oxo-piperidine-1-carbonyl]-pentadec-4-enoic acid]","anti-proliferative activity in words, relative to the comparator named",[1],acceptable anti-proliferative activity
same,IC50,[1]; [2],58 µM
same,IC50,[1]; [3],> 50 µM
"CCCCCCCCCCCCC=CC(CC(=O)O)C(=O)N1CC(=Cc2ccccc2F)C(=O)C(=Cc2ccccc2F)C1 (stereo not shown) [Compound 27, 3-[3,5-Bis-(2-fluorobenzylidene)-4-oxo-piperidine-1-carbonyl]-heptadec-4-enoic acid]","anti-proliferative activity in words, relative to the comparator named",[1],acceptable anti-proliferative activity
same,IC50,[1]; [2],47 µM
"CCCCCCCCCCCCCCCCC=CC(CC(=O)O)C(=O)N1CC(=Cc2ccccc2F)C(=O)C(=Cc2ccccc2F)C1 (stereo not shown) [Compound 28, 3-[3,5-Bis-(2-fluorobenzylidene)-4-oxo-piperidine-1-carbonyl]-heneicos-4-enoic acid]","anti-proliferative activity in words, relative to the comparator named",[1],total loss of activity
same,IC50,[1]; [2],84 µM
same,IC50,[1]; [3],> 50 µM
